How the values were obtained:
[1] = test system: MKN-45 (human gastric cancer cells); assay: Proliferation inhibitory effect against human cancer cells, MKN-45; format: cell-based; settings: MKN-45, 72 h, c-met amplified cell, 3 days, Cell Counting Kit-8
Description: (§1) Six kinds of human cancer cells are suspended in RPMI1640 medium (purchased from Sigma) containing 10% FBS, respectively. The cell suspensions (MKN-45: 1.5×10^4 cells/ml, SNU-5: 5×10^4 cells/ml, EBC-1: 3×10^4 cells/ml, MKN-74: 2.5×10^4 cells/ml, SNU-1: 2.5×10^4 cells/ml, A549: 1.5×10^4 cells/ml) were added to a cell culture 96-well plate (purchased from NUNC, product number: 167008) at 0.1 ml/well, and cultured overnight in a 5% CO2 incubator (37° C.). After the culture, 0.1 ml of a test substance diluted with RPMI1640 medium containing 10% FBS and the culture was continued for 3 days in a 5% CO2 incubator (37° C.). After the culture, 10 μl of Cell Counting Kit-8 (purchased from DOJINDO, product number: 343-07623) was added to each well and the incubation was performed for 0.5 to 3 hours in a 5% CO2 incubator (37° C.). After the incubation, absorbance of each well was measured by a plate reader MTP-500 (Corona Electric Co., Ltd.) with measurement wavelength 450 nm and reference wavelength 660 nm.

[2] = test system: SNU-5 (human gastric cancer cells); assay: Proliferation inhibitory effect against human cancer cells, SNU-5; format: cell-based; settings: SNU-5, 72 h, c-met amplified cell, 3 days, Cell Counting Kit-8
Description: as §1

[3] = test system: EBC-1 (human lung cancer cells); assay: Proliferation inhibitory effect against human cancer cells, EBC-1; format: cell-based; settings: EBC-1, 72 h, c-met amplified cell, 3 days, Cell Counting Kit-8
Description: as §1

[4] = test system: MKN-74 (human gastric cancer cells); assay: Proliferation inhibitory effect against human cancer cells, MKN-74; format: cell-based; settings: MKN-74, 72 h, c-met non-amplified cell, 3 days, Cell Counting Kit-8
Description: as §1

[5] = test system: SNU-1 (human gastric cancer cells); assay: Proliferation inhibitory effect against human cancer cells, SNU-1; format: cell-based; settings: SNU1, 72 h, c-met non-amplified cell, 3 days, Cell Counting Kit-8
Description: as §1

[6] = test system: A549 (human lung cancer cells); assay: Proliferation inhibitory effect against human cancer cells, A549; format: cell-based; settings: A549, 72 h, c-met non-amplified cell, 3 days, Cell Counting Kit-8
Description: as §1

[7] = test system: Human gastric cancer cells (MKN-45); assay: Tumor proliferation inhibitory effect against human cancer cells (MKN-45), subcutaneous transplant; format: in vivo, BALB/c(nu/nu) mice; settings: orally twice a day, fifth day
Description: Human gastric cancer cells (MKN-45) were suspended in HBSS (purchased from GIBCO BRL). The cell suspension (5×10^7 cells/ml; 0.1 ml) was transplanted to the subcutaneous parts of the right flank of 7-week female BALB/c(nu/nu) mice. When the tumor volume reached 100-200 mm^3, mice were grouped so that the average of the tumor volume was equable in each group, and 0.5% methylcellulose in hydrochloric acid-glucose solution (0.1N hydrochloric acid:5% glucose solution=1:9) or a test substance suspended in dimethylsulfoxide-Tween-glucose solution (dimethylsulfoxide:Tween:5% glucose solution (containing equimolar hydrochloric acid of the test substance)=7:13:80) was orally administered to mice daily twice a day. The tumor volume was measured on the fifth day from the administration of the test substance. The long and short diameters of the tumor were measured with a caliper and the tumor volume was calculated according to the equation: 1/2×long diameter×short diameter×short diameter. The experiment was conducted in a control group (vehicle administered group) of 10 animals as well as in the test substance administered group of 5 animals. Tumor proliferation rate (%) was defined as the ration of the tumor volume of the test substance administered group to the tumor volume of control group and shown in table 9

[8] = 100 mg/kg weight/administration
[9] = 12.5 mg/kg weight/administration

`CN1CCC(N(C)C(=O)Nc2cc(Oc3cc(F)c(NC(=O)C4(C(=O)Nc5ccc(F)cc5)CC4)cc3F)ccn2)CC1` [Example 94, N-(2,5-Difluoro-4-{[2-({[methyl(1-methylpiperidin-4-yl)amino]carbonyl}amino)pyridin-4-yl]oxy}phenyl)-N′-(4-fluorophenyl)cyclopropane-1,1-dicarboxamide] showed an IC50 [1] of 2.3 nM, an IC50 [2] of 1.7 nM and an IC50 [3] of 2.4 nM. For the same compound, the IC50 [4] was 1900 nM, the IC50 [5] was 1600 nM and the IC50 [6] was 1800 nM.

For `CN1CCN(C2CCN(C(=O)Nc3cc(Oc4ccc(NC(=O)C5(C(=O)Nc6ccc(F)cc6)CC5)c(F)c4)ccn3)CC2)CC1` [Example 15, N-(2-Fluoro-4-{[2-({[4-(4-methylpiperazin-1-yl)piperidin-1-yl]carbonyl}amino)pyridin-4-yl]oxy}phenyl)-N-(4-fluorophenyl)cyclopropane-1,1-dicarboxamide], the IC50 [1] was 15 nM, the IC50 [2] was 6.2 nM and the IC50 [3] was 17 nM. For the same compound, the IC50 [4] was 4300 nM, the IC50 [5] was 4200 nM and the IC50 [6] was 2600 nM. The “tumor proliferation rate(%)” value ([7]; 30 mg/kg weight/administration) was 29.7% and the “tumor proliferation rate(%)” value [7, 8] was 19.9%.

For `O=C(Nc1cc(Oc2cc(F)c(NC(=O)C3(C(=O)Nc4ccc(F)cc4)CC3)cc2F)ccn1)N1CC(CO)C1` [Example 96, N-(2,5-Difluoro-4-{[2-({[3-(hydroxymethyl)azetidin-1-yl]carbonyl}amino)pyridin-4-yl]oxy}phenyl)-N′-(4-fluorophenyl)cyclopropane-1,1-dicarboxamide], the IC50 [1] was 4.7 nM, the IC50 [2] was 4.9 nM and the IC50 [3] was 4.5 nM. The IC50 [4] was 3300 nM, the IC50 [5] was 3600 nM and the IC50 [6] was 2000 nM.

`CN1CCN(C2CCN(C(=O)Nc3cc(Oc4cc(F)c(NC(=O)C5(C(=O)Nc6ccc(F)cc6)CC5)cc4F)ccn3)CC2)CC1` [Example 92, N-(2,5-Difluoro-4-{[2-({[4-(4-methylpiperazin-1-yl)piperidin-1-yl]carbonyl}amino)pyridin-4-yl]oxy}phenyl)-N′-(4-fluorophenyl)cyclopropane-1,1-dicarboxamide] gave an IC50 [1] of 3.8 nM, an IC50 [2] of 1.7 nM and an IC50 [3] of 3.8 nM. It also gave an IC50 [4] of 2000 nM, an IC50 [5] of 2300 nM and an IC50 [6] of 2900 nM. For the same compound, the “tumor proliferation rate(%)” value [7, 9] was 27.9%.

In the case of `O=C(Nc1cc(Oc2ccc(NC(=O)C3(C(=O)Nc4ccc(F)cc4)CC3)c(F)c2)ccn1)N1CCC1` [Example 61, N-[4-({2-[(Azetidin-1-ylcarbonyl)amino]pyridin-4-yl}oxy)-2-fluorophenyl]-N′-(4-fluorophenyl)cyclopropane-1,1-dicarboxamide], the IC50 [1] is reported as 60 nM, the IC50 [2] is reported as 38 nM and the IC50 [3] is reported as 65 nM. It also gave an IC50 [4] of 4200 nM, an IC50 [5] of over 10000 nM and an IC50 [6] of over 10000 nM. The “tumor proliferation rate(%)” value [7, 9] was 35.8%.

In the case of `O=C(Nc1cc(Oc2cc(F)c(NC(=O)C3(C(=O)Nc4ccc(F)cc4)CC3)cc2F)ccn1)N1CC(O)C1` [Example 91, N-{2,5-Difluoro-4-[(2-{([3-hydroxyazetidin-1-yl)carbonyl]amino}pyridin-4-yl)oxy]phenyl}-N′-(4-fluorophenyl)cyclopropane-1,1-dicarboxamide], the IC50 [1] is reported as 6 nM, the IC50 [2] is reported as 6 nM and the IC50 [3] is reported as 6.4 nM. For the same compound, the IC50 [4] was 3000 nM, the IC50 [5] was 2000 nM and the IC50 [6] was 1900 nM. The “tumor proliferation rate(%)” value ([7]; 1 mg/kg weight/administration) was 73.0%, the “tumor proliferation rate(%)” value ([7]; 3 mg/kg weight/administration) was 55.5% and the “tumor proliferation rate(%)” value ([7]; 10 mg/kg weight/administration) was 27.4%. The “tumor proliferation rate(%)” value [7, 9] was 22.9%, the “tumor proliferation rate(%)” value ([7]; 30 mg/kg weight/administration) was 19.6% and the “tumor proliferation rate(%)” value [7, 8] was 16.0%.

From patent US20120232049A1, “PYRIDINE OR PYRIMIDINE DERIVATIVE HAVING EXCELLENT CELL GROWTH INHIBITION EFFECT AND EXCELLENT ANTI-TUMOR EFFECT ON CELL STRAIN HAVING AMPLIFICATION OF HGFR GENE” (Eisai R&D Management Co., Ltd., priority 2007, published 2012)
